“Also recorded” adds a separate entry of the source. Read-outs that look alike come from different tables or passages of the source. Where no end group is shown, it is not given here.
Experiments:
[1] = system: isolated, retrogradely perfused rat hearts; test: Global ischemia (35 min)-reperfusion (120 min) in isolated, retrogradely perfused (Langendorff) rat hearts; peptide postconditioning; settings: for LVD AUC / LVD-lowering effect in the presence of exendin(9-39): N-Ac-GLP-1(7-34)amide 0.3 nM + exendin(9-39) 3 nM versus control ischemia; for Infarct size (% IS/AAR): 15 min at onset of reperfusion; for Left ventricle developed pressure (LVDEV) AUC / Rate-pressure product (RPP) AUC / Left ventricle diastolic pressure (LVD) AUC over last 60 min of reperfusion / post-ischemic diastolic contracture: postconditioning 0.3 nM versus control ischemia
Description: Global ischemia (35 min)-reperfusion (120 min) was applied in isolated, retrogradely perfused rat hearts. Peptides were present for 15 min at the onset of reperfusion. Cardiac function parameters (beats per minute, left ventricle developed and diastolic pressures, rate-pressure product) throughout the course of the perfusion were measured. Infarct size was determined on collected hearts by 2,3,5-tripehyltetrazolium chloride staining and planimetry.
(§1) For anesthesia, a mixture of midazolam (2.5 mg/kg), fluanisone (2.5 mg/kg) and fentanyl citrate (0.08 mg/kg) was administered subcutaneously. Heparin ([…]. per kg) was administered through the femoral vein. The animals were ventilated via a tracheotomy with a mixture of 35% O2/65% N2 and the chest cavity was opened. The excised heart was immediately placed in an ice-cold Krebs Henseleit buffer. The heart was quickly mounted onto the Langendorff perfusion system (ADInstruments, UK) and perfused with modified Krebs-Henseleit solution (NaCl 118.5 mM, KCl 4.7 mM, NaHCO3 25.0 mM, MgSO4 1.2 mM, CaCl2 1.4 mM, glucose 11.1 mM), equilibrated to pH 7.4 with a gas mixture of 5% CO2/95% 02, at 37° C. The left auricle was removed and a size 7 balloon (ADInstruments) was inserted into the left ventricle through the left atrium and adjusted to a diastolic pressure of 4-10 mmHg. Perfusion pressure was set to 70 mm Hg and maintained at this average value by a servo control system (ML175 STH Pump Controller, ADInstruments) continually adjusting the peristaltic pump revolutions according to flow resistance. The hearts were allowed to stabilize for 20 min prior to recording of left ventricle functional parameter baseline values over the next 10 min: pressure (systolic, LVS; diastolic, LVD; developed, LVDEV=LVS-LVD), beats per minute (BPM) and rate-pressure product (RPP). Power Lab 8/30 system and Chart 5 Pro Software from ADInstruments were used for these recordings.
(§2) Hearts were also excluded if ventricular fibrillation lasting more than 5 min occurred during reperfusion.
FIG. 1 outlines the time course for normoxic (A) and ischemia-reperfusion (B) experiments. The experimental groups were: control normoxia, no peptide addition; normoxia, N—Ac-GLP-1(7-34)amide 0.3 nM; control ischemia-reperfusion (IR), no peptide addition; IR, N—Ac-GLP-1(7-34)amide 0.3 nM; IR, N—Ac-GLP-1(7-34)amide 0.3 nM+exendin(9-39) 3 nM; IR, exendin(9-39) 3 nM. […] “Stab” indicates 30 min stabilization period. When present, peptides were added for 15 min, from the beginning of the last 120 min of perfusion (A) or reperfusion (B). Total perfusion time was always 185 min, consisting of 30 min stabilization, followed by 155 min of normoxic perfusion (FIG. 1A) or 35 min global ischemia-120 min reperfusion (FIG. 1B).
Following reperfusion, the hearts were processed for 2, 3, 5-triphenyltetrazolium chloride staining and planimetric infarct size determination, as described earlier. Quantitation was done by an investigator blinded to the experimental conditions. Infarct size (IS) was expressed as a percentage of total ischemic area at risk (AAR) (% IS/AAR).
All values are presented as means, with SEM given in parantheses. One-way ANOVA with Dunnett's post hoc test (GraphPad Prism® 5) was used to compare treatment results to control conditions. P<0.05 was considered significant.

[2] = system: isolated, retrogradely perfused rat hearts; test: Normoxic perfusion of isolated rat hearts (no preceding ischemia); settings: 0.3 nM between 35 and 50 min of perfusion
Description: as §1, §2
FIG. 1 outlines the time course for normoxic (A) and ischemia-reperfusion (B) experiments. The experimental groups were: control normoxia, no peptide addition; normoxia, N—Ac-GLP-1(7-34)amide 0.3 nM; control ischemia-reperfusion (IR), no peptide addition; IR, N—Ac-GLP-1(7-34)amide 0.3 nM; IR, N—Ac-GLP-1(7-34)amide 0.3 nM+exendin(9-39) 3 nM; IR, exendin(9-39) 3 nM. […] “Stab” indicates 30 min stabilization period. […]

in vitro rat heart = settings: cited from earlier work
[3] = listed as N—Ac-GLP-1-(7-34)amide
[4] = listed as N—Ac-GLP-1(7-34)-amide

## N—Ac-GLP-1(7-34)amide (Ac-HAEGTFTSDVSSYLEGQAAKEFIAWLVK-NH2) [N-terminally acetylated, C-terminally truncated analogue of GLP-1]
[1]; N-Ac-GLP-1(7-34)amide 0.3 nM + exendin(9-39) 3 nM
  Trend towards LVDEV improvement in the presence of exendin(9-39): abolished
[1]
  LVD AUC / LVD-lowering effect in the presence of exendin(9-39): blocked
  Left ventricle developed pressure (LVDEV) AUC: did not affect
  Rate-pressure product (RPP) AUC: did not affect
[1]; [3]
  LVD AUC / LVD-lowering effect in the presence of exendin(9-39): not affected
  Left ventricle developed pressure (LVDEV) AUC: did not increase
  Rate-pressure product (RPP) AUC: did not increase
[1]; N-Ac-GLP-1(7-34)amide 0.3 nM in the presence of exendin(9-39) 3 nM, mean
  Infarct size (% IS/AAR): 21.4%
[1]; co-administration of exendin(9-39) 3 nM
  Infarct size-limiting action in the presence of GLP-1 receptor antagonist exendin(9-39): abolished
[1]; peptide 0.3 nM for 15 min at onset of reperfusion, mean, control ischemia-reperfusion without peptide 24.8% / 28.4%
  Infarct size (IS) as percentage of area at risk (% IS/AAR): 11.4%
[1]; P<0.05
  Left ventricle diastolic pressure (LVD) AUC over last 60 min of reperfusion / post-ischemic diastolic contracture: diminished diastolic hypercontracture; also recorded: significant decrease
[1]; P<0.05, listed as N—Ac-GLP-1(7-34)-amide
  Left ventricle diastolic pressure (LVD) AUC over last 60 min of reperfusion / post-ischemic diastolic contracture: diminished significantly
[1]; P<0.05, listed as N—Ac-GLP-1-(7-34)amide
  Left ventricle diastolic pressure (LVD) AUC over last 60 min of reperfusion / post-ischemic diastolic contracture: significantly decreased
[1]; postconditioning 0.3 nM versus control ischemia-reperfusion
  Relative decrease in infarct size: approximately 54%
[1]; [4]
  Left ventricle developed pressure (LVDEV) AUC: no significant effect
  Rate-pressure product (RPP) AUC: no significant effect
[1]; postconditioning 0.3 nM versus no peptide, P<0.05
  Effect on infarct size (in words): diminished infarct size; also recorded: significant decrease
[2]
  Functional heart parameters (BPM, LVDEV, LVD, RPP) under normoxic perfusion: not affected
[2]; [4]
  Functional heart parameters (BPM, LVDEV, LVD, RPP) under normoxic perfusion: nor did it affect
[2]; [3]
  Functional heart parameters (BPM, LVDEV, LVD, RPP) under normoxic perfusion: No effect

## exendin(9-39) [reference compound]
In vitro rat heart; exendin(9-39) given with GLP-1
  Effect on infarct-limiting actions of GLP-1: abolish
[1]; exendin(9-39) 3 nM alone versus control ischemia
  LVD AUC over last 60 min of reperfusion: not affected
[1]; exendin(9-39) 3 nM alone, mean
  Infarct size (% IS/AAR): 21.7%

## GLP-1 (HAEGTFTSDVSSYLEGQAAKEFIAWLVKGR; ends and bridges not checked; UniProt P01275 98-127, looked up) [natural hormone GLP-1]
In vitro rat heart; GLP-1 alone
  Effect on myocardial infarction: did not decrease
In vitro rat heart; GLP-1 in combination with the GLP-1 breakdown inhibitor valine pyrrolidide (VP)
  Effect on myocardial infarction: significant reduction

From patent US20160207970A1, “POLYPEPTIDE FOR THE PROTECTION AGAINST HEART ISCHEMIA-REPERFUSION INJURY” (Pharis Biotech GmbH, priority 2011, published 2016)
